# According to publication PMC8832507 (Molecular cancer therapeutics, 2021):
# Where a SMILES comes first, the peptide text is derived from it. [ ]: non-standard residue; d: D form. The star is where a group is joined. Dolaproine = CO[C@@H]([C@@H]1CCCN1)[C@@H](C)C(=O)O; Dil = CC[C@H](C)[C@H](NC)[C@@H](CC(=O)O)OC; X1 = C[C@@H](N*)[C@@H](O)c1ccccc1; NMeV = CN[C@H](C(=O)O)C(C)C
# Columns and labels:
# HCC1954 cells = assay: Cytotoxicity; format: cell-based; conditions: for IC50: read-out: Free payload IC50
# MDA-MB-468 cells = assay: Cytotoxicity; format: cell-based; conditions: for IC50: read-out: Free payload IC50, MDA-MB-468 cells
# [1] = system: HCC1954 (Ag+) and MDA-MB-468 (Ag−) co-culture; assay: Bystander co-culture assay; format: cell-based
# tumor spheroids = assay: Tumor spheroid pharmacodynamic marker; format: cell-based; conditions: for Bystander penetration in spheroids by pH3 PD signal (in words): 25 nM AF680-ADC or AF680-trastuzumab, 24-48 hours; for Bystander penetration in spheroids by γH2A.X PD signal (in words): 24-72 hours
# PAMPA permeability assay = conditions: free payload
molecule,measurement,setting,value
CC[C@@]1(O)C(=O)OCc2c1cc1n(c2=O)Cc2c-1nc1cc(F)c(C)c3c1c2[C@@H](NC(=O)CO)CC3 [DXd],IC50,HCC1954 cells,~6.2 nM
same,Fold higher free payload sensitivity of MDA-MB-468 cells compared to HCC1954,MDA-MB-468 cells,2–3 fold
same,IC50,MDA-MB-468 cells,~2.3 nM
same,Ag− cell death in co-culture,[1]; any concentration higher than 250 pM,100%
Ahx-maytansine,Bystander penetration in spheroids by pH3 PD signal (in words),tumor spheroids,detectable but localized bystander cell death
T-DM1,Distance from spheroid edge of directly targeted cells showing pH3 signal,tumor spheroids; 25 nM AF680-ADC,~ 75 µm
same,Bystander penetration in spheroids by pH3 PD signal (in words),tumor spheroids,did not exhibit bystander killing even at 48 hours
same,Ag+ cell death in co-culture (in words),"[1]; 1 nM ADC, 6 days",complete Ag+ cell death
same,Ag− cell bystander toxicity in co-culture (in words),"[1]; 1 nM ADC, 6 days, varying % Ag+ cells",no Ag− toxicity even at a 90% Ag+ cell percentage
CC[C@H](C)[C@@H]([C@@H](CC(=O)N1CCC[C@H]1[C@H](OC)[C@@H](C)C(=O)N[C@H](C)[C@@H](O)c1ccccc1)OC)N(C)C(=O)[C@@H](NC(=O)[C@@H](NC)C(C)C)C(C)C [MMAE] (H-[NMeV]V[Dil][Dolaproine]-X1),"Free payload IC50, fold more potent than either Ahx-maytansine or Lys-SMCC-DM1",HCC1954 cells,over 100 fold
same,Bystander penetration in spheroids by pH3 PD signal (in words),tumor spheroids,pH3 signal throughout the spheroid at 48 hours
same,"PAMPA permeability, fold higher than either Ahx-maytansine or Lys-SMCC-DM1",PAMPA permeability assay,~10 fold
CCc1c2c(nc3ccc(O)cc13)-c1cc3c(c(=O)n1C2)COC(=O)[C@]3(O)CC [SN-38],IC50,HCC1954 cells,~1.8 nM
same,Fold higher free payload sensitivity of MDA-MB-468 cells compared to HCC1954,MDA-MB-468 cells,2–3 fold
same,IC50,MDA-MB-468 cells,~0.6 nM
same,Bystander penetration in spheroids by γH2A.X PD signal (in words),tumor spheroids; 25 nM AF680-ADC,not readily apparent
calicheamicin D [CaliD],Bystander penetration in spheroids by γH2A.X PD signal (in words),tumor spheroids; 25 nM AF680-ADC,greatest bystander cell killing
same,PD response in spheroids with potency matched doses (in words),"tumor spheroids; T-CaliG 75nM, T-CaliD 1nM",more efficient at reaching cells in the spheroid center
CC[C@@]1(O)C(=O)OCc2c1cc1n(c2=O)Cc2c-1nc1cc(F)c(C)c3c1c2[C@@H](N)CC3 [exatecan],Bystander penetration in spheroids by γH2A.X PD signal (in words),tumor spheroids; 25 nM AF680-ADC,greatest PD signal at the spheroid center
same,Bystander efficiency in modified co-culture (in words),"[1]; fixed number of Ag− cells, increasing number of Ag+ cells, fixed ADC concentration",more efficient
same,"PAMPA permeability, fold higher than DXd",PAMPA permeability assay,~ 2 fold
same,"PAMPA permeability, fold higher than SN-38",PAMPA permeability assay,~ 5 fold
calicheamicin G [CaliG],Bystander penetration in spheroids by γH2A.X PD signal (in words),tumor spheroids; 25 nM AF680-ADC,negligible
